Laboratory results taken from patent publication US20240131001A1, “PHARMACEUTICAL APPLICATION OF FUSED RING PHENOLIC COMPOUNDS” (RISEN (SUZHOU) PHARMA TECH CO. LTD., priority 2020, published 2024).
pIC50: −log10 of the molar value. Like-named read-outs stand apart in the source and are kept apart here.

Experiments:
[1] = tested on: PPK; experiment: PPK inhibitor screening assay (Table 1, PPK isoform not given); assay type: biochemical, Pseudomonas aeruginosa; details: PPK isoform not stated; for pIC50: read-out: IC50 Values for PPK Inhibition
Text: (§1) In order to evaluate the inhibitory effect of the compounds on PPKs, the PPK1, PPK2A, PPK2B and PPK2C were used respectively to test the above compounds using a kit described in an article (Liang Peng et al. & Ning Sun (2020) Discovery and antibacterial study of potential PPK1 inhibitors against uropathogenic E. coli, Journal of Enzyme Inhibition and Medicinal Chemistry, 35:1, 1224-1232).

[2] = molecular target: PPK1 (Pseudomonas aeruginosa, UniProt P0DP44); experiment: PPK inhibitor screening assay, PPK1; assay type: biochemical
Sequence of PPK1 (P0DP44 whole entry): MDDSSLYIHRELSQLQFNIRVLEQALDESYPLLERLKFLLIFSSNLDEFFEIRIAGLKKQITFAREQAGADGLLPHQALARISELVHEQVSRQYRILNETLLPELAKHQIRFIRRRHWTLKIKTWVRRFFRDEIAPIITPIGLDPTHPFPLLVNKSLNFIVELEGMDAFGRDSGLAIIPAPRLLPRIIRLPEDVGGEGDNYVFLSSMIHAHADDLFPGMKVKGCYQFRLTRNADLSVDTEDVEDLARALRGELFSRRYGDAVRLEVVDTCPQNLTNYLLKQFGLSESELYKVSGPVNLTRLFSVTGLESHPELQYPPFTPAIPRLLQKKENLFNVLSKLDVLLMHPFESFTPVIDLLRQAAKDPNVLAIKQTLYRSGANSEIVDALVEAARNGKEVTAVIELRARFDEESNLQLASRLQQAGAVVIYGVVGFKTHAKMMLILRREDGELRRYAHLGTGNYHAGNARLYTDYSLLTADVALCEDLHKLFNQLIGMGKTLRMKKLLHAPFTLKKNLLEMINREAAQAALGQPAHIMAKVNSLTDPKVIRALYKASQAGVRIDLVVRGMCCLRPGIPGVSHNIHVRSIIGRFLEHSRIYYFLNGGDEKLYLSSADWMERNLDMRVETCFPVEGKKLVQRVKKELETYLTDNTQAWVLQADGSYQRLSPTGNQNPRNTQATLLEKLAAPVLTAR
Text: as §1

[3] = molecular target: PPK2A (Pseudomonas aeruginosa, UniProt Q9I6Z1); experiment: PPK inhibitor screening assay, PPK2A; assay type: biochemical
Sequence of PPK2A (Q9I6Z1 whole entry): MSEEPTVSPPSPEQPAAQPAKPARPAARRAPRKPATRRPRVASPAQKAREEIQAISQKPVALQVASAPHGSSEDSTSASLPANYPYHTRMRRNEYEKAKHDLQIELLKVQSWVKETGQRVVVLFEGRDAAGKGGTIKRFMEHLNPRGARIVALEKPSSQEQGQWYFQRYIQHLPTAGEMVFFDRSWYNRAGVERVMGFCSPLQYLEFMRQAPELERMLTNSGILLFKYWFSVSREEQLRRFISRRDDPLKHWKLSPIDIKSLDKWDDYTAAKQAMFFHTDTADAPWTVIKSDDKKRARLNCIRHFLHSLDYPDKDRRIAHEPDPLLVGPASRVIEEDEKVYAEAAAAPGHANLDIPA
Text: as §1

[4] = molecular target: PPK2B (Pseudomonas aeruginosa, UniProt Q9I154); experiment: PPK inhibitor screening assay, PPK2B; assay type: biochemical
Sequence of PPK2B (Q9I154 whole entry): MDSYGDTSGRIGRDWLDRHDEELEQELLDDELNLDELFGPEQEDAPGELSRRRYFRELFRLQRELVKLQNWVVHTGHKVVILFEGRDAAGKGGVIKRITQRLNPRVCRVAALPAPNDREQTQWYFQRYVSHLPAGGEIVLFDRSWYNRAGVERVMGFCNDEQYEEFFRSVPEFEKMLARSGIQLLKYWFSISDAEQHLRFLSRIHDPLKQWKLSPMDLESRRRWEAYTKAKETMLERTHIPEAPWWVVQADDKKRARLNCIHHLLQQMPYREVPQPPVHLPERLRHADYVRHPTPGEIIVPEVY
Text: as §1

[5] = molecular target: PPK2C (Pseudomonas aeruginosa, UniProt Q9HYF1); experiment: PPK inhibitor screening assay, PPK2C; assay type: biochemical
Sequence of PPK2C (Q9HYF1 whole entry): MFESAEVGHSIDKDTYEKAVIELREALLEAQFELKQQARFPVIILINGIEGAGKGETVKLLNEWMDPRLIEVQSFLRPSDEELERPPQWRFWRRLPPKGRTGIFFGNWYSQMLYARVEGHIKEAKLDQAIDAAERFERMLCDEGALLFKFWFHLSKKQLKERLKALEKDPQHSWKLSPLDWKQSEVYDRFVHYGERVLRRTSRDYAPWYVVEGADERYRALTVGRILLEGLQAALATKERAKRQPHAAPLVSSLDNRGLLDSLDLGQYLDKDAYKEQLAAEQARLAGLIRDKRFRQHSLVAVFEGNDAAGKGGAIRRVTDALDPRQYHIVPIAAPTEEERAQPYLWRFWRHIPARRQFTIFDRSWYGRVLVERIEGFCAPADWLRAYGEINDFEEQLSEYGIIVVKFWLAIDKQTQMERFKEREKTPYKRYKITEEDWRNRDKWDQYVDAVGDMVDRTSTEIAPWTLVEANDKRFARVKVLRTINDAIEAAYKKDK
Text: as §1

[6] = tested on: Pseudomonas aeruginosa; experiment: Biofilm testing; assay type: cell-based; details: 100 μM compound
Experimental: FIG. 2: Effect of Compound 4 on Biofilm Formation in Different Pseudomonas Aeruginosa Strains. A: absorbance. The experimental concentration of compound 4 was 100 μM, and “−” or “+” indicates the absence or presence of compound 4; WT: wild-type strain; Δ ppk 1 is the PPK1 knocked out strain; Δ ppk2A, Δppk2B and Δppk2C are the strains with PPK2A, PPK2B, PPK2C knocked out; Δppk1, Δppk2AΔppk2B, Δppk2C are the strains with PPK1, PPK2A, PPK2B and PPK2C knocked out.
Pseudomonas aeruginosa can form biofilm in culture medium. Four groups of LB liquid media were set respectively, among them, group A was inoculated with wild-type Pseudomonas aeruginosa (WT); group B was inoculated with PPK1 knocked out Pseudomonas aeruginosa (A ppkl); group C was inoculated with PPK2A, PPK2B and PPK2C knocked out Pseudomonas aeruginosa (Δ ppk 2A, Δ ppk 2B, Δ ppk 2C); group D was inoculated with PPK1 and PPK2A, PPK2B and PPK2C knocked out Pseudomonas aeruginosa (Δ ppk1, Δ ppk 2Δ A ppk 2B, Δ ppk 2C). After the four groups were infected with Pseudomonas aeruginosa, each group was further divided into two groups, with one group added with DMSO (−) as the control, the other group added with 100 μm compound 4 (+). […] And this biofilm formed in the culture medium of groups A, B, C and D was analyzed using 570 nm visible light.

[7] = tested on: Pseudomonas aeruginosa; experiment: Nematode survival test; assay type: in vivo; details: Caenorhabditis elegans infected with wild-type Pseudomonas aeruginosa, six days
Text: FIG. 3: Effect of Compound 4 on the Survival Rate of Nematodes Infected with Pseudomonas Aeruginosa.
Caenorhabditis elegans were divided into five groups A, B, C, D, E, and then subjected to modeling respectively. Caenorhabditis elegans in group A and B were infected with wild-type (WT) Pseudomonas aeruginosa. Group A served as the DMSO control group and group B as compound 4 treatment group. Caenorhabditis elegans in groups C and D were infected with Pseudomonas aeruginosa which was knocked out of all PPK (ΔpolyP, Δppk1Δppk2ΔAppk2BΔ ppk 2C), where group C was DMSO control group and group D served as compound 4 treatment group; and group E was infected with Escherichia coli (0P50E. Coli). After modeling, Caenorhabditis elegans in groups A and C were continuously treated with DMSO, and those in groups B, D and E were continuously treated with compound 4. The environment and conditions were consistent across the five groups. Six days later, the survival rate of nematodes in five groups was calculated.

[8] = tested on: human embryonic kidney cells (HEK239T); experiment: HEK cytotoxicity test (Trypan blue staining cell viability assay); assay type: cell-based; details: for relative viability rate: 100 μM, relative to DMSO; for cytotoxicity: up to 100 μM
Experimental: FIG. 4: Toxicity Assay of Compound 4 and Compound B on Human Embryonic Kidney Cells (HEK Cells): Relative Viability in the Presence of DMSO (Control), Compound B (100 μM), and Compound 4 (100 μM).
The cytotoxicity of the compounds was assessed in cultured human embryonic kidney cells (HEK239T) using the Trypan blue staining cell viability assay. The blank solvent DMSO, compound B, and compound 4 were tested, respectively.

SMILES: O=C(O)c1ccc2c(c1)C1(OC2=O)c2ccc(O)cc2Oc2cc(O)ccc21 [E, reference compound]
- pIC50 [1]: < 3.70

SMILES: O=c1c(O)c(-c2cc(O)c(O)c(O)c2)oc2cc(O)cc(O)c12 [Compound 7]
- pIC50 [1]: 4.41

SMILES: O=C1OC2(c3ccc(O)cc3Oc3cc(O)ccc32)c2ccccc21 [D, reference compound]
- pIC50 [1]: < 3.70

SMILES: O=c1c(O)c(-c2ccc(O)cc2O)oc2cc(O)cc(O)c12 [Compound A, reference compound]
- IC50 Values for PPK Inhibition [1]: Inactive

SMILES: O=c1oc2cc(O)ccc2c2ccc(O)c(O)c12 [C, reference compound]
- pIC50 [1]: < 4.00

SMILES: O=c1c(O)c(-c2ccc(O)c(O)c2)oc2cc(O)cc(O)c12 [Compound G, reference compound]
- pIC50 [1]: 3.75

SMILES: O=C1OC2(c3ccccc31)c1ccc(O)c(O)c1Oc1c2ccc(O)c1O [Compound 4]
- pIC50 [1]: 4.77
- pIC50 ([2]; read-out: IC50 PPK1): 4.77
- pIC50 [3]: 4.80
- pIC50 [4]: 4.70
- pIC50 [5]: 3.78
- inhibitory effect on PPK1 and PPK2 seen in biofilm test ([6]; PPK knocked out strains): not only inhibited PPK1, but also exhibited a good inhibitory effect on PPK2
- biofilm formation (570 nm absorbance) ([6]; wild-type Pseudomonas aeruginosa, 37° C., 24 h): could reduce the formation of biofilm
- mortality of nematodes [7]: significantly reduced
- relative viability rate [8]: ~100%
- cytotoxicity [8]: no cytotoxicity

SMILES: O=c1oc2c(O)c(O)ccc2c2ccc(O)c(O)c12 [Compound B, reference compound]
- pIC50 [1]: 3.82
- pIC50 [2]: 3.92
- relative viability rate [8]: approximately 35%
- cytotoxicity [8]: caused a large number of cell death

SMILES: O=c1oc2c(O)c(O)c(O)c3c(=O)oc4c(O)c(O)cc1c4c23 [Compound 2]
- pIC50 [1]: 5.10
- pIC50 ([2]; read-out: IC50 PPK1): 4.70
- pIC50 [4]: 4.23

SMILES: O=c1cc(-c2cc(O)c(O)c(O)c2-c2ccsc2)oc2c(O)c(O)ccc12 [Compound 10]
- pIC50 [1]: 4.44

SMILES: C[C@@H]1O[C@@H](OC[C@H]2O[C@@H](Oc3c(-c4ccc(O)c(O)c4)oc4cc(O)cc(O)c4c3=O)[C@H](O)[C@@H](O)[C@@H]2O)[C@H](O)[C@H](O)[C@H]1O [Compound H, reference compound]
- IC50 Values for PPK Inhibition [1]: Inactive

SMILES: O=c1oc2c(O)c(O)cc3c(=O)oc4c(O)c(O)cc1c4c23 [Compound 3]
- pIC50 [1]: 5.05
- pIC50 ([2]; read-out: IC50 PPK1): 4.70
- pIC50 [3]: 4.30
- pIC50 [4]: 4.32

SMILES: O=S1(=O)OC2(c3ccccc31)c1ccc(O)c(O)c1Oc1c2ccc(O)c1O [Compound 5]
- pIC50 [1]: 4.58
- pIC50 ([2]; read-out: IC50 PPK1): 4.59
- pIC50 [3]: 4.62
- pIC50 [4]: 4.51
- pIC50 [5]: 3.56

SMILES: O=c1cc(-c2cc(O)c(O)c(O)c2Br)oc2c(O)c(O)ccc12 [Compound 1]
- pIC50 [1]: 5.22

SMILES: Cc1c(C2(c3cc(Br)c(O)c(Br)c3C)OS(=O)(=O)c3ccccc32)cc(Br)c(O)c1Br [Compound F, reference compound]
- IC50 Values for PPK Inhibition [1]: Inactive

SMILES: O=S1(=O)OC2(c3ccccc31)c1cc(Br)c(O)c(O)c1Oc1c2cc(Br)c(O)c1O [Compound 6]
- pIC50 [1]: 5.12
